SMILES strings stand for the structures. Some results are limits rather than exact numbers.

Format in all cases: cell-based
For assay [1], the target named is T1, ΔF508-CFTR (Homo sapiens, UniProt P13569, DEL508-508).
T1 construct: host or cells: CFBE41o-, doxycycline-inducible
Kind of assay: CFTR cell surface levels using HRP-tagged ΔF508-CFTR expressing CFBE cells, in the presence of a co-corrector. Conditions: HRP-tagged ΔF508-CFTR expressing CFBE cells, in the presence of 3 μM co-corrector; for EC50: read-out: EC50. An outline of the steps: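 Cells were seeded with 0.5 μg/mL doxycycline and held 68 h at 37 °C. Test compounds plus 3 μM co-corrector (final 0.1% DMSO) were then added for 20 h at 33 °C. Washed cells received HRP substrate, and luminescence was normalized between DMSO and 3 μM co-corrector controls.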

A further assay has as its target T2, CFTR ΔF508 (Homo sapiens, UniProt P13569, DEL508-508).
T2 construct: bronchial epithelial cells isolated from CF patients homozygous for the CFTR ΔF508 mutation; McGill University; Asterand; University of North Carolina hAEC-CF; host or cells: primary human bronchial epithelial cells from CF patients homozygous for ΔF508
Kind of assay: Chronic TECC assay on primary bronchial epithelial cells (corrector, co-corrector and potentiator). As to conditions: chronic TECC, AUC = full area under the curve upon forskolin stimulation, with co-corrector and potentiator, 24 hours. On the procedure: Primary Bronchial Epithelial Cells Protocol
The TECC (Tranepithelial Clamp Circuit, EP-design) assay measures the functionality of the cystic fibrosis Transmembrane Conductance regulator (CFTR) by measuring the short circuit current (Isc) generated over the basolateral and apical membrane of lung epithelial cells. In TECC the transepithelial potential PD and transepithelial resistance (Rt)) are measured in an open circuit and transformed to Ieq using Ohm's law. 24 Wells can be measured simultaneously allowing a higher throughput compared to Ussing chambers.
For this purpose, bronchial epithelial cells isolated from CF patients homozygous for the CFTR ΔF508 mutation (hAEC-CF, Epithelix, Geneva, Switzerland; McGill University, Montreal, Qc; Asterand, Detroit, Mich.; University of North Carolina, Chapel Hill, N.C.) are plated on type IV collagen-coated Transwell® supports (Costar). Human airway epithelia are generated by provision of an air-liquid interface for 21 days to form well-differentiated polarized cultures that resemble in vivo pseudo-stratified ciliated epithelium (Fulcher, M. L., Gabriel, S., Burns, K. A., Yankaskas, J. R., Randell, S. H., 2005. Well-differentiated human airway epithelial cell cultures. Methods Mol. Med. 107, 183-206). The differentiated cells are treated with test corrector compound(s) (corrector alone or in combination with co-corrector, 4-[(2R,4R)-4-({[1-(2,2-difluoro-1,3-benzodioxol-5-yl)cyclopropyl]carbonyl}amino)-7-methoxy-3,4-dihydro-2H-chromen-2-yl]benzoic acid (G924806/A-1618261) (“acute”) or test corrector compounds, co-corrector and potentiator, N-(3-carbamoyl-5,5,7,7-tetramethyl-4,7-dihydro-5H-thieno[2,3-c]pyran-2-yl)-1H-pyrazole-5-carboxamide GLPG1837, (“chronic”) for 24 hours basolaterally to allow sufficient expression of properly folded CFTR protein on the membrane. All compound plates contained negative controls (DMSO) and positive controls (0.15 μM, 4-[(2R,4R)-4-({[1-(2,2-difluoro-1,3-benzodioxol-5-yl)cyclopropyl]carbonyl}amino)-7-(difluoromethoxy)-3,4-dihydro-2H-chromen-2-yl]benzoic acid).
For electrophysiological recording of the “chronic” experiments, the human airway epithelia are mounted in the TECC heating plate for electrophysiological measurement and kept at 37° C. The epithelia are bathed in a NaCl-Ringer solution (120 mM NaCl, 25 mM NaHCO3, 1.2 mM CaCl2, 1.2 mM MgCl2, 0.8 mM KH2PO4, 0.8 mM K2HPO4, pH 7.4, 5 mM glucose) on both the basolateral and apical sides. Test compounds (corrector, co-corrector, 4-[(2R,4R)-4-({[1-(2,2-difluoro-1,3-benzodioxol-5-yl)cyclopropyl]carbonyl}amino)-7-(difluoromethoxy)-3,4-dihydro-2H-chromen-2-yl]benzoic acid, and potentiator, N-(3-carbamoyl-5,5,7,7-tetramethyl-4,7-dihydro-5H-thieno[2,3-c]pyran-2-yl)-1H-pyrazole-5-carboxamide), are re-added to the recording solution prior to measurement. Apical amiloride is used to inhibit the endogenous ENaC currents while forskolin is applied on both apical and basolateral side to stimulate CFTR. Measurements are done during a 20 minute timeframe with recordings every 2 minutes. The increase in Ieq is used as a measure for the increased CFTR activity, EC50 values can be generated by measuring impact of different concentrations of compound on Ieq on primary cells, for this purpose each transwell is treated with a different compound concentration. Inhibitor-172, an inhibitor specific for CFTR, is used to test the specificity of the tested compounds. Raw data were normalized to percentage activity values using the equation: 100×(Sample−Negative control)/(Positive control−Negative Control).

The target in assay [2] is T1, ΔF508-CFTR. Kind of assay: CFTR cell surface levels using HRP-tagged ΔF508-CFTR expressing CFBE cells, intrinsic corrector capacity. Conditions: for EC50: read-out: EC50. Put shortly:
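Here the cells express ΔF508-CFTR with horseradish peroxidase inserted in extracellular loop 4, so only rescued channel at the surface gives luminescent signal. Compounds act on their own, 20 h at the reduced temperature of 33 °C; values are percent activity relative to DMSO and a 3 μM corrector.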

[3] abbreviates: HRP-tagged ΔF508-CFTR expressing CFBE cells, intrinsic corrector capacity (no co-corrector), 33° C., 20 hours.
[4] abbreviates: HRP-tagged ΔF508-CFTR CFBE41o- cells, compounds alone (intrinsic corrector capacity), 20 hours at 33° C., positive control 3 μM corrector.
[5] abbreviates: HRP-tagged ΔF508-CFTR CFBE41o- cells, compounds alone (intrinsic corrector capacity), 20 hours at 33° C.

T1 sequence (P13569 with tags, fused parts or gaps DEL508-508): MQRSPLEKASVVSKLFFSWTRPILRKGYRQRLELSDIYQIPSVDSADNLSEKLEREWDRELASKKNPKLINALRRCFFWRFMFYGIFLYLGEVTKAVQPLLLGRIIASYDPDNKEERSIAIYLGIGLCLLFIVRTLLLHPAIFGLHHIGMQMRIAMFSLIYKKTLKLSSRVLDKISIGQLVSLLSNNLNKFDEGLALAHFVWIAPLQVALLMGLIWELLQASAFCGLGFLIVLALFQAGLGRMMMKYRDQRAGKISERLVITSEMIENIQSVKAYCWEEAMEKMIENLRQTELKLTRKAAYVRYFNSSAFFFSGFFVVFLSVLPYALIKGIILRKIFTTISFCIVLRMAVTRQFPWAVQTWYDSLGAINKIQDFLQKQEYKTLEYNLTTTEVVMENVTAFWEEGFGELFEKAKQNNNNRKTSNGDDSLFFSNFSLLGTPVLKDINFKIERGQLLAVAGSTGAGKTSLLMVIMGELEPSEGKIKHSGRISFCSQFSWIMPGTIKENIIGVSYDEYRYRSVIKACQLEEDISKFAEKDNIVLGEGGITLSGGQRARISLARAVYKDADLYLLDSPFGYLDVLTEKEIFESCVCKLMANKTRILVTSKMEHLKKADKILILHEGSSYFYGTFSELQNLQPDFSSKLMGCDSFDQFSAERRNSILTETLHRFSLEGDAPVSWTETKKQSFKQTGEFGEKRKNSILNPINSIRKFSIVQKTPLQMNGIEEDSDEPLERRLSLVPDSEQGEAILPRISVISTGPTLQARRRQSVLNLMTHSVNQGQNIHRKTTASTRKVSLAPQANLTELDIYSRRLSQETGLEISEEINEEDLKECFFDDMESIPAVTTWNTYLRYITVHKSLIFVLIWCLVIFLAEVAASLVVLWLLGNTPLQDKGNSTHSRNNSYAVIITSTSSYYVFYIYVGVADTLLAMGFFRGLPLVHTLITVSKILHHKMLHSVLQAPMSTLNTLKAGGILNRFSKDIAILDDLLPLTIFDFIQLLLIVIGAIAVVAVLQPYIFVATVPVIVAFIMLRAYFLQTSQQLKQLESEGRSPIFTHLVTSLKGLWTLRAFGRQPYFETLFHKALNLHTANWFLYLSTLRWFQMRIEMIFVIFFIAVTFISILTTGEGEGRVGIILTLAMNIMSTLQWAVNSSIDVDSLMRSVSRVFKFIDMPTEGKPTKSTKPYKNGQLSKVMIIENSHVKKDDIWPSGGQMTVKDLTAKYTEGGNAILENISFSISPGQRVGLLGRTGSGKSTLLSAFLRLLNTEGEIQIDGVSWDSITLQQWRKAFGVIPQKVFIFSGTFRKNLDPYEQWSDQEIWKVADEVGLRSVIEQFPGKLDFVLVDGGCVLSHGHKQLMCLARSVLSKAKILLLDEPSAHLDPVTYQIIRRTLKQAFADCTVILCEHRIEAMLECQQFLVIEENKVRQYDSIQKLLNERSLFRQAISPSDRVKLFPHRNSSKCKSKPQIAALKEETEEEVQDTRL
T2 sequence (P13569 with tags, fused parts or gaps DEL508-508): as above

As for `O=C(O)c1cc(N2CCN(c3ccncc3)CC2)c2c(C3CCC3)nn(C3CCCCC3)c2n1` [compound 809, 3-cyclobutyl-1-cyclohexyl-4-[4-(pyridin-4-yl)piperazin-1-yl]-1H-pyrazolo[3,4-b]pyridine-6-carboxylic acid], at ΔF508-CFTR [1], the “% Activation” value was 452.2% and the EC50 (as a rule, the midpoint of the concentration-response curve) was 184 nM. The “% Activity at 1 μM (AUC**)” value at CFTR ΔF508 (1 μM) came out at 186.6667%.
For `COCC1CCN(c2cc(C(=O)O)nc3c2c(C2CCC2)nn3-c2ccc(F)cc2)CC1` [compound 657, 3-cyclobutyl-1-(4-fluorophenyl)-4-[4-(methoxymethyl)piperidin-1-yl]-1H-pyrazolo[3,4-b]pyridine-6-carboxylic acid], the “% Activation” value at ΔF508-CFTR [1] is 543%. Besides, the EC50 stood at 306 nM on ΔF508-CFTR [1] and 78 nM on CFTR ΔF508 (read-out: EC50 (nM) (AUC)).
In the case of `C[C@@H](CN(C)C)Oc1cc(C(=O)O)nc2c1c(C1CCC1)nn2-c1ccccc1` [compound 615, 3-cyclobutyl-4-{[(2S)-1-(dimethylamino)propan-2-yl]oxy}-1-phenyl-1H-pyrazolo[3,4-b]pyridine-6-carboxylic acid], the “% Activation” value came to 216.65% on ΔF508-CFTR [1] and 44.6% on ΔF508-CFTR [2] (setting [3]). Moreover, the EC50 at ΔF508-CFTR [1] amounted to 2330 nM; on ΔF508-CFTR [2] (setting [3]) it was 3330 nM.
In the case of `Cc1nn(-c2ccccc2)c2nc(C(=O)O)cc(-c3ccc(N4CCN(C(C)(C)C)CC4)cc3)c12` [compound 60, 4-[4-(4-tert-butylpiperazin-1-yl)phenyl]-3-methyl-1-phenyl-1H-pyrazolo[3,4-b]pyridine-6-carboxylic acid], the “% Activation” value at ΔF508-CFTR [1] is given as 143.1%; on ΔF508-CFTR [2] (setting [4]) it was 14.9%. For the same compound, the EC50 at ΔF508-CFTR [1] and at ΔF508-CFTR [2] (setting [5]) was over 10000 nM each time.
As for `CC(C)c1nn(C2CCN(CC#N)C2)c2nc(C(=O)O)cc(-c3ccc(N4CCOCC4)cc3)c12` (stereo not drawn) [compound 141, 1-[1-(cyanomethyl)pyrrolidin-3-yl]-4-[4-(morpholin-4-yl)phenyl]-3-(propan-2-yl)-1H-pyrazolo[3,4-b]pyridine-6-carboxylic acid], the “% Activation” value at ΔF508-CFTR [1] is given as 121.5%; on ΔF508-CFTR [2] (setting [4]) it was 5.399%. Further, the EC50 on ΔF508-CFTR [1] and at ΔF508-CFTR [2] (setting [5]) was over 10000 nM each time.

The values above are taken from patent US9796711B2, “Substituted pyrazolo[3,4-b]pyridin-6-carboxylic acids and method of use” (AbbVie S.àr.l., priority 2015, dated 2017).
